Experimental data published in patent US20030232851A1, “Viral treatment” (The Procter & Gamble Company, priority 1999, published 2003).
≈ marks a conversion by molar mass, not a printed value. Where “and” joins values, the source holds several entries; their conditions need not be identical. Equal entries are not always repeated.

Experiments:
Type in all cases: cell-based
[1] = test system: HHV8 cell line, TPA-induced BCBL-1 cells; assay: Kaposi's Sarcoma (HHV8) in vitro test, DNA copy number
Description: (§1) The DNA copy number and the toxicity value were measured and compared with Cidofovir.

TPA-induced BCBL-1 cells = assay: Kaposi's Sarcoma test: toxicity values; set-up: Toxicity Values, samples 1-3 / Toxicity Values, average: scale not given here
Description: as §1

Curvularia lunata = assay: Anti-fungal activity (NCCLS M-27A based), Curvularia lunata; details: growth inhibited or reduced at least 90%; for MIC: Curvularia lunata
Description: (§2) It was active against cryptococcus neoformans and curvularai lunata. The cidal activity for the C. neoformans is high enough that it is clear […] against this yeast. This test was conducted using a method based upon NCCLS reference method M-27A published in 1997. Solvent, medium and growth controls were set-up with the tests. Once these were read to validate the test performance, the QC fungi were read to insure they had expected results. These steps validated the test system. DMSO was used as a drug-chemical solvent. […] The 90% cut-off is necessary for azoles, which are static and not cidal. The FMC or cidal level was determined by sub-culturing a sample from each tube showing no growth.

Cryptococcus neoformans = assay: Anti-fungal activity (NCCLS M-27A based), Cryptococcus neoformans; details: for MFC / MIC: Cryptococcus neoformans
Description: as §2

[2] = growth inhibited or reduced at least 90%

Q: How did the “DNA Copy Number, % virus control” value ([1]; 0.08 μM) turn out when `Nc1ccn(C[C@@H](CO)OCP(=O)(O)O)c(=O)n1` [Cidofovir, reference compound] was run?
A: Its value is 95.3%.

Q: And the “DNA Copy Number, average” value ([1]; 0.08 μM)?
A: The value was 8478.0 per 3 μl.

Q: What about the “DNA Copy Number, samples 1-3” value ([1]; 0.08 μM) of the same molecule?
A: Its value is 8485.1 per 3 μl and 7948.1 per 3 μl and 9000.8 per 3 μl.

Q: What about the “DNA Copy Number, % virus control” value ([1]; 0.25 μM) of the same molecule?
A: The value was 75.0%.

Q: And the “DNA Copy Number, average” value ([1]; 0.25 μM)?
A: The value was 6666.9 per 3 μl.

Q: What about the “DNA Copy Number, samples 1-3” value ([1]; 0.25 μM) of the same molecule?
A: Its value is 6668.9 per 3 μl and 6336.3 per 3 μl and 6995.5 per 3 μl.

Q: And the “DNA Copy Number, % virus control” value ([1]; 0.8 μM)?
A: Its value is 57.5%.

Q: What about the “DNA Copy Number, average” value ([1]; 0.8 μM) of the same molecule?
A: The value was 5108.6 per 3 μl.

Q: And the “DNA Copy Number, % virus control” value ([1]; 2.5 μM)?
A: Its value is 14.3%.

Q: And the “DNA Copy Number, average” value ([1]; 2.5 μM)?
A: Its value is 1276.9 per 3 μl.

Q: What about the “DNA Copy Number, samples 1-3” value ([1]; 2.5 μM) of the same molecule?
A: The value was 1329.8 per 3 μl and 1198.3 per 3 μl and 1275.7 per 3 μl.

Q: And the “DNA Copy Number, % virus control” value ([1]; 8 μM)?
A: Its value is 0.0%.

Q: What about the “DNA Copy Number, average” value ([1]; 8 μM) of the same molecule?
A: Its value is 3.0 per 3 μl.

Q: What about the “DNA Copy Number, % virus control” value ([1]; 25 μM) of the same molecule?
A: Its value is 0.0%.

Q: And the “DNA Copy Number, average” value ([1]; 25 μM)?
A: Its value is 0.0 per 3 μl.

Q: What about the “DNA Copy Number, samples 1-3” value ([1]; 25 μM) of the same molecule?
A: Its value is 0 per 3 μl and 0.0 per 3 μl.

Q: And the IC50 ([1]; Human gammaherpesvirus 8, BCBL1)?
A: Its IC50 is 1100 nM.

Q: What about the “Toxicity Values, % cell control” value (TPA-induced BCBL-1 cells; 0.08 μM) of the same molecule?
A: Its value is 83.9%.

Q: And the “Toxicity Values, average” value (TPA-induced BCBL-1 cells; 0.08 μM)?
A: The value was 0.814.

Q: What about the “Toxicity Values, samples 1-3” value (TPA-induced BCBL-1 cells; 0.08 μM) of the same molecule?
A: Its value is 0.864 and 0.797 and 0.780.

Q: What about the “Toxicity Values, % cell control” value (TPA-induced BCBL-1 cells; 0.25 μM) of the same molecule?
A: Its value is 90.1%.

Q: What about the “Toxicity Values, average” value (TPA-induced BCBL-1 cells; 0.25 μM) of the same molecule?
A: The value was 0.874.

Q: What about the “Toxicity Values, samples 1-3” value (TPA-induced BCBL-1 cells; 0.25 μM) of the same molecule?
A: The value was 0.867 and 0.819 and 0.934.

Q: And the “Toxicity Values, % cell control” value (TPA-induced BCBL-1 cells; 0.8 μM)?
A: The value was 82.8%.

Q: And the “Toxicity Values, average” value (TPA-induced BCBL-1 cells; 0.8 μM)?
A: The value was 0.803.

Q: What about the “Toxicity Values, samples 1-3” value (TPA-induced BCBL-1 cells; 0.8 μM) of the same molecule?
A: Its value is 0.824 and 0.770 and 0.814.

Q: And the “Toxicity Values, % cell control” value (TPA-induced BCBL-1 cells; 2.5 μM)?
A: Its value is 75.0%.

Q: What about the “Toxicity Values, average” value (TPA-induced BCBL-1 cells; 2.5 μM) of the same molecule?
A: Its value is 0.728.

Q: What about the “Toxicity Values, samples 1-3” value (TPA-induced BCBL-1 cells; 2.5 μM) of the same molecule?
A: Its value is 0.794 and 0.684 and 0.704.

Q: And the “Toxicity Values, % cell control” value (TPA-induced BCBL-1 cells; 8 μM)?
A: The value was 69.3%.

Q: And the “Toxicity Values, average” value (TPA-induced BCBL-1 cells; 8 μM)?
A: The value was 0.672.

Q: What about the “Toxicity Values, samples 1-3” value (TPA-induced BCBL-1 cells; 8 μM) of the same molecule?
A: The value was 0.639 and 0.700 and 0.677.

Q: And the “Toxicity Values, % cell control” value (TPA-induced BCBL-1 cells; 25 μM)?
A: The value was 4403%.

Q: And the “Toxicity Values, average” value (TPA-induced BCBL-1 cells; 25 μM)?
A: Its value is 0.430.

Q: What about the “Toxicity Values, samples 1-3” value (TPA-induced BCBL-1 cells; 25 μM) of the same molecule?
A: Its value is 0.443 and 0.398 and 0.447.

Q: `CCC(C)n1ncn(-c2ccc(N3CCN(c4ccc(OCC5COC(Cn6cncn6)(c6ccc(Cl)cc6Cl)O5)cc4)CC3)cc2)c1=O` (centres unmarked) [Itra, Itraconazole] was tested. Which MIC (Curvularia lunata) did it give?
A: Its MIC is 0.03 µg/mL (≈ 0.0425 µM).

Q: What about the MFC (Cryptococcus neoformans; cidal level) of the same molecule?
A: The MFC was greater than 32 µg/mL.

Q: And the MIC (Cryptococcus neoformans; [2])?
A: Its MIC is 0.03 µg/mL (≈ 0.0425 µM).

Q: `c1ccc2[nH]c(-c3cscn3)nc2c1` [Thia, thiabendazole] was tested. Which MIC (Curvularia lunata) did it give?
A: Its MIC is no less than 32 µg/mL.

Q: And the MFC (Cryptococcus neoformans; cidal level)?
A: The MFC was greater than 32 µg/mL.

Q: What about the MIC (Cryptococcus neoformans; [2]) of the same molecule?
A: The MIC was 16 µg/mL (≈ 79.5 µM).

Q: With “methyl 1,2- benzimidazole carbamate or benomyl” as the molecule, how does the MIC data (Curvularia lunata) read?
A: The MIC data was 0.06 µg/mL.

Q: And the MFC data (Cryptococcus neoformans; cidal level)?
A: The MFC data was greater than 32 µg/mL.

Q: And the MIC data (Cryptococcus neoformans; [2])?
A: The MIC data was 8 µg/mL.
